Converted amounts (≈) assume the structure as drawn. Counter-ions that a name gives are not always drawn. Like-named read-outs stand apart in the source and are kept apart here. Non-standard residues stand in square brackets, D forms with d. Residues, ends and D or L forms follow the SMILES beside them. *: point of attachment. Phe(4-F) = N[C@@H](Cc1ccc(F)cc1)C(=O)O; Octanoyl = CCCCCCCC(=O)*; Piperidide = C1CCN(*)CC1; Bn = c1ccc(C*)cc1
How the values were obtained:
DnaK = DnaK (Escherichia coli, UniProt P0A6Y8); assay: DnaK Inhibition Assay (DnaK induced refolding of denatured firefly luciferase); type: biochemical, E. coli; conditions: DnaK 200 nM, DnaJ 100 nM, GrpE 400 nM
Description: Inhibition of the bacterial DnaK chaperone system may be evaluated by inhibition of the DnaK induced refolding of denatured firefly luciferase. More specifically, firefly luciferase is denatured by treatment with 8N guanidium hydrochloride at room temperature for 30 mins and then 5° C. for 1 h. After dilution into cold MOPS buffer augmented with ATP (2.5 mM) and DTT (12.5 mM) and standing for a further hour, the denatured luciferase is refolded by addition to a mixture of chaperone proteins in MOPS buffer, resulting in a reaction mixture containing denatured luciferase (24 nM), DnaK (200 nM), DnaJ (100 nM) and GrpE (400 nM). The extent of refolding is determined by addition of a luciferase substrate and measurement of the emitted chemoluminescence. In this format the substrate is the commercially available luciferase “Steady-Glo” reagent from Promega, Inc. Inhibition of DnaK induced refolding is determined by premixing the chaperone proteins with the test agent at concentrations of test agent ranging from 1-100 μg/mL. The extent of refolding is compared to that with no test reagent, and the IC50 is estimated by fitting the data to a standard sigmoidal dose-response curve.
Inhibition of the bacterial DnaK chaperone system was evaluated by inhibition of the DnaK induced refolding of denatured firefly luciferase. Firefly luciferase was denatured by treatment with 8N guanidium hydrochloride at room temperature for 30 mins and then 5° C. for 1 h. After dilution into cold MOPS buffer augmented with ATP (2.5 mM) and DTT (12.5 mM) and standing for a further hour, the denatured luciferase was refolded by addition to a mixture of chaperone proteins in MOPS buffer, resulting in a reaction mixture containing denatured luciferase (24 nM), DnaK (200 nM), DnaJ (100 nM) and GrpE (400 nM). The extent of refolding was determined by addition of a luciferase substrate and measurement of the emitted chemoluminescence. In this format the substrate is the commercially available luciferase “Steady-Glo” reagent from Promega, Inc. Inhibition of DnaK induced refolding was determined by premixing the chaperone proteins with the test agent at concentrations of test agent ranging from 1-100 μg/mL. The extent of refolding was compared to that with no test reagent, and the IC50 was estimated by fitting the data to a standard sigmoidal dose-response curve.
IC50 is defined as the concentration in μM at which 50% inhibition of DnaK induced refolding of denatured firefly luciferase occurs.

[1] = test system: H. influenzae (Strain 109); assay: H. influenzae Inhibition Assay (broth microdilution MIC), Strain 109; type: cell-based; conditions: for MIC: Haemophilus influenzae
Description: (§1) An in vitro assay may be conducted by determining the minimum inhibitory concentration (MIC) of the small molecules to Gram negative bacteria, such as H. influenza. H. influenzae MICs are determined using CLSI recommended broth microdilution methodology (M7-A7). Test agent powders are dissolved in DMSO, serial dilutions are also made in DMSO and 1:100 dilutions of each are then prepared in Haemophilus Test media (HTM). 100 μL of each final dilution are transferred to appropriate wells of a 96 well microtiter plate. The test organism is suspended in saline or Mueller Hinton broth to an organism density equivalent to a 0.5 McFarland Standard. 300 μL of the H. influenzae suspension is transferred to 11 mLs of HTM and 10 μL of this suspension is transferred to each well of the microtiter plate. […] Colony counts are determined for each inoculum and expected range of final organism concentration is 3-7×10^5 CFU/mL. One of the recommended H. influenzae quality control strains (ATCC 49247 or 49766) is also tested on each testing day.
as §1, with “H.” for “An in vitro assay may be conducted by determining the minimum inhibitory concentration (MIC) of the small molecules to Gram negative bacteria, such as H. influenza. H.”
(§2) Pyrrhocoricin was used as a control. MIC is defined as the lowest concentration of an anti-bacterial agent that will inhibit the visible growth of a microorganism after overnight incubation.

[2] = test system: H. influenzae (Strain 110); assay: H. influenzae Inhibition Assay (broth microdilution MIC), Strain 110; type: cell-based; conditions: for MIC: Haemophilus influenzae
Description: as §1
as §1, with “H.” for “An in vitro assay may be conducted by determining the minimum inhibitory concentration (MIC) of the small molecules to Gram negative bacteria, such as H. influenza. H.”
as §2

E. coli (ATCC 25922) = assay: Antibacterial activity against E. coli (MIC); type: cell-based; conditions: Escherichia coli, ATCC25922
[3] = read-out: DnaK IC50(μg/ml) (converted)
[4] = Strain 109, HTM, 35° C., 20-24 hours, read-out: H. influenzae (Strain 109) MIC
[5] = Strain 110, HTM, 35° C., 20-24 hours, read-out: H. influenzae (Strain 110) MIC

Chain of DnaK (P0A6Y8 2-638): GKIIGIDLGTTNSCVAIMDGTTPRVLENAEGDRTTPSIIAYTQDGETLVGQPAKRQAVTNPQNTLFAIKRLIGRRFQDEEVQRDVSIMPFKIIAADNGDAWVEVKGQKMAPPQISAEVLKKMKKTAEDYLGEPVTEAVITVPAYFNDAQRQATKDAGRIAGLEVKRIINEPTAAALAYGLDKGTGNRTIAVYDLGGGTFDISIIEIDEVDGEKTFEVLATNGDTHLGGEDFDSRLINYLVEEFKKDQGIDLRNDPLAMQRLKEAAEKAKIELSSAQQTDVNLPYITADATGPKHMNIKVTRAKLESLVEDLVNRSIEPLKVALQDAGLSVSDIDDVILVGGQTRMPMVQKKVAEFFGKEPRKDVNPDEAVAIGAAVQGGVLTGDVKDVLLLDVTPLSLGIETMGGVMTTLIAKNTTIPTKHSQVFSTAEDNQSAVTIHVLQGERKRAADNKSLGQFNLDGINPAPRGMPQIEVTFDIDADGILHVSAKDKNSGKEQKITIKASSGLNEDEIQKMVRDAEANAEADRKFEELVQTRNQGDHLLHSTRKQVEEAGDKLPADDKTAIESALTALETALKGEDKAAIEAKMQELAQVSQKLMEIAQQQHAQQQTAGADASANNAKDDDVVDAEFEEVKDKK

Compound	IC50 (DnaK; read-out: DnaK IC50) [µM]	IC50 (DnaK; [3]) [µM]	MIC ([1]; read-out: H. influenzae (Strain 109) MIC (μg/ml)) [µg/mL]	inhibition of H. influenzae strain 109 compared with the control pyrrhocoricin [1]	MIC ([2]; read-out: H. influenzae (Strain 110) MIC (μg/ml)) [µg/mL]	inhibition of H. influenzae strain 110 compared with the control pyrrhocoricin ([2]; strain 110)	MIC [1, 4] [µg/mL]	MIC [2, 5] [µg/mL]	MIC (E. coli (ATCC 25922)) [µg/mL]
CC(=O)N[C@@H](Cc1ccc(OCc2ccccc2)cc1)C(=O)N[C@@H](CC(C)C)C(=O)N1CCC[C@H]1C(=O)O [Structure 3, Ac-Tyr(Bzl)-Leu-Pro-OH] (Ac-Tyr(Bn)-Leu-Pro-OH)	110	399	32 (≈ 61.1 µM)	surpasses that of pyrrhocoricin	64 (≈ 122 µM)	surpasses that of pyrrhocoricin	–	–	–
COC(=O)[C@@H]1CCCN1C(=O)[C@H](CC(C)C)NC(=O)[C@H](Cc1ccc(OCc2ccccc2)cc1)NC(C)=O [Structure 2, Ac-Tyr(Bzl)-Leu-Pro-OMe] (Ac-Tyr(Bn)-Leu-Pro-OMe)	63	219	–	lower concentration than the control	–	–	32 (≈ 59.5 µM)	> 128	–
CCC(C)[C@H](NC(C)=O)C(=O)N[C@@H](CCCCNC(=O)OCc1ccccc1)C(=O)N1CCC[C@H]1C(=O)O (some centres unmarked) [Structure 22, Ac-Ile-Lys(Cbz)-Pro-OH]	14	50.7	–	lower concentration than the control	–	–	2 (≈ 3.75 µM)	> 128	–
COC(=O)[C@@H]1CCCN1C(=O)[C@H](CC(C)C)NC(=O)[C@H](Cc1ccc(F)cc1)NC(C)=O [Structure 10, Ac(4-F)Phe-Leu-Pro-OMe] (Ac-[Phe(4-F)]-Leu-Pro-OMe)	26	127	–	lower concentration than the control	–	–	32 (≈ 71.2 µM)	> 128	–
CCCCCCCC(=O)N[C@@H](Cc1ccc(OCc2ccccc2)cc1)C(=O)N[C@@H](CC(C)C)C(=O)N1CCC[C@H]1C(=O)N[C@H](CCCNC(=N)N)C(=O)OC [Structure 26, Octanoyl-Tyr(Bzl)-Leu-Pro-Arg-OMe trifluoroacetate] (Octanoyl-Y(Bn)LP[dR]-OMe)	30	34.7	–	–	–	–	–	–	32
CCCCCCCC(=O)N[C@@H](Cc1ccc(OCc2ccccc2)cc1)C(=O)N[C@@H](CC(C)C)C(=O)N1CCC[C@H]1C(=O)N[C@H](CCCNC(=N)N)C(=O)N1CCCCC1 [Structure 28, Octanoyl-Tyr(Bzl)-Leu-Pro-Arg-N(CH2)5 trifluoroacetate] (Octanoyl-Y(Bn)LP[dR]-Piperidide)	13	14.4	–	–	–	–	–	–	32
CC(=O)N[C@@H](Cc1ccc(F)cc1)C(=O)N[C@@H](CC(C)C)C(=O)N1CCC[C@H]1C(=O)O [Structure 11] (Ac-[Phe(4-F)]-Leu-Pro-OH)	69	363	–	lower concentration than the control	–	–	4 (≈ 9.18 µM)	> 128	–

From patent US20100087466A1, “NOVEL SMALL MOLECULE DNAK INHIBITORS” (priority 2008, published 2010)
